Assay results: patent publication US5360613A, “Method of reducing blood levels of total cholesterol and low-density lipoprotein cholesterol” (Iowa State University Research Foundation, Inc., priority 1993, dated 1994)

How the values were obtained:
[1] = tested on: plasma cholesterol and triglycerides; assay: Hamster feeding study, plasma cholesterol and triglycerides (Example I, Table A); assay type: in vivo, hamsters; conditions: for % Change HDL cholesterol / % Change HDL/LDL / % Change LDL cholesterol / % Change Total cholesterol / % Change Triglycerides: HMB vs control
Procedure: A preliminary experiment was carried out using hamsters as the test animal and Na-HMB as the therapeutic agent. The experimental details and the results obtained are described as follows.
Pregnant Female hamsters were housed and allowed to give birth. At three weeks of age, litters were subdivided into pairs within a sex. The pairs of hamsters were then assigned randomly a purified diet based on casein and cornstarch with either contained 0.1% NaCl (control) or one containing 0.1% Na-HMB (HMB). They were maintained on this diet for 6 weeks at which time they were killed by decapitation and blood collected into EDTA containing tubes. Blood was separated by centrifugation and plasma collected. The unfrozen plasma was treated with an LDL precipitating agent, centrifuged and the supernatant collected. The whole plasma and supernatant were assayed for cholesterol by an enzymatic method. Plasma cholesterol estimated total cholesterol while the supernatant represented HDL cholesterol. LDL cholesterol was estimated by the formula: LDL-Cholesterol=(Total cholesterol)-(HDL cholesterol)-(triglycerides X 0.2). Total triglycerides in plasma were estimated by an enzymatic assay.

blood cholesterol = assay: Human dose-response study, blood cholesterol, triglycerides and glucose (Example V, Table E); assay type: in vivo, humans
Procedure: (§1) Higher dose levels than in Example IV of Ca-HMB were tested in humans. The objective was to obtain an indication of whether higher doses could be safely administered, and also whether higher doses might provide a greater reduction in total cholesterol and LDL cholesterol.
(§2) Normal humans were used in the study. Ca-HMB was administered in 250 mg capsules, and the subjects were instructed to take the capsules in 4 equal doses daily. No control of diet was attempted except they were instructed to eat as they normally would. On alternate days the subjects had blood drawn before the morning meal and before they took the morning HMB dose. Four subjects were studied for dose level of 05., 1, 2 and 4 grams per day.
(§3) Results from all samples of each subject were subjected to linear regression and the slope and intercept used to calculate the % change in concentration after 8 days on treatment. The percentage changes were then subjected to ANOVA-regression to determine if there was a linear effect of dosage on the parameter. The dose-response effect (p<) is listed in the linear effect column of Table E.

[2] = tested on: acetate incorporation into cholesterol by the rat liver; conditions: 0.5 g/kg body weight for 2 and 4 days; cited from earlier work
aorta = assay: Pig feeding study, aorta streaking (pre-atherosclerotic lesions) (Example III, Table C); assay type: in vivo, pigs; conditions: for Aorta Streaking: 0 least severe to 3.2 most severe, control 1.87
Procedure: A further large mammal study was carried out with pigs. Pigs comprise test animals which are more similar in certain respects to humans than ruminants.
Control: 60 g. of calcium
The pigs were housed in pens of two animals each and were allowed ad libitum access to food and water. Pigs were approximately 160 lbs. at the start of the experiment and were 240 lbs. at the end. All pigs were castrate males. At day 28 and day 43 of the experiment blood was collected from the anterior vena cava by venipuncture. Blood was collected into EDTA containing tubes, centrifuged and frozen until analyzed. At approximately 100 days of the experiment half of the animals (32) were slaughtered, and at 120 days the remaining 32 animals were slaughtered. At the time of slaughter the abdominal aorta was dissected out and external fat removed. The aorta was then split lengthwise and 1/2 fixed in formaldehyde for 48 hours. At this time aortas were removed, stretched over a 6 inch stick, washed in ethanol and stained with a lipid stain for 2 hours. After a 1 hour wash aortas were blotted and examined. All the aortas from a group were laid out on a white bench and arranged in order from least sever to most sever. The least sever had no dark red streaks on the aorta or around the small vertebral vessels leaving the aorta. The most sever lesions had multiple streaks in the middle of the aorta and dark red deposits in turbulent areas such as the branching of vessels from the aorta. The ordered aortas were then assigned a consecutive decimal number. The first (least severe) was assigned 0 and the most severe was assigned 3.2 Plasma cholesterol and triglycerides were measured by an enzyme-colorimetric assay (Sigma).
statistical analysis was accomplished by the general linear model procedure of the Statistical Analysis System (SAS). The model included the main effects of treatment and pen number. T-tests were conducted from the ANOVA standard error, to compare the HMB treatments to the control. […] It appeared that HMB can partially prevent the formation of pre-atherosclerotic lesions. No effect of KIC was noted relative to any parameter.

[3] = Human dose-response study, adverse effects (Example V); assay type: in vivo, humans; conditions: 0.5 to 4 g per day
Procedure: as §1, §2

[4] = Human dose-response study, body weight and body fat (Example V, Table E); assay type: in vivo, humans; conditions: study combined with Example IV
Procedure: as §1, §2, §3

[5] = tested on: acetate incorporation into cholesterol; conditions: added to the media at very high concentrations; cited from earlier work
[6] = Human dose-response study, blood HMB (Example V); assay type: in vivo, humans
Procedure: as §1, §2

[7] = Controlled double-blind human study, body weight, body fat and resting metabolic rate (Example IV, Table D); assay type: in vivo, humans
Procedure: In view of the findings of the foregoing examples, a human study was carried out.
In a controlled double-blind study, the effects of feeding HMB on loss of urinary nitrogen, blood cholesterol and immune function in normal humans were tested. This study also measured blood components that reflect liver, kidney and tissue metabolism. In addition further measurements of nitrogen metabolism and immune function were implemented. All measurements were made in a controlled dietary situation and under blinded conditions. Normal male subjects were used who had been screened for normalcy. Ca-HMB was administered in 250 mg capsules. The subjects were instructed to take the capsules in 4 equal doses daily (with meals and at bed time). The subject ate all their meals under controlled conditions. Normal diets were used, and the amount of the diets was controlled to maintain equal and substantially constant nitrogen intake. The subjects had blood drawn before the morning meal or before they took the morning HMB dose. Each subject was studied twice: once with a placebo and once with HMB.

[8] = females, 0.1% Na-HMB diet, 6 weeks
[9] = males, 0.1% Na-HMB diet, 6 weeks
[10] = 4 grams per day, end of the one week study
[11] = HMB change net of placebo-group change

Blood HMB ([6]; 0.5 to 4 g per day): increased in a dose-responsive manner
increase in blood HMB ([6]; 4 grams per day): very large increase
SMILES: CC(C)(O)CC(=O)O [HMB, β-hydroxy-β-methylbutyric acid]
HDL cholesterol ([1]; females, 0.1% Na-HMB diet, 6 weeks, control 125): 132 mg %
Total cholesterol ([1]; females, 0.1% Na-HMB diet, 6 weeks, control 237): 228 mg %
Triglycerides ([1]; females, 0.1% Na-HMB diet, 6 weeks, control 240): 212 mg %
HDL/LDL ([1]; females, 0.1% Na-HMB diet, 6 weeks, control .51): .41
LDL cholesterol ([1]; females, 0.1% Na-HMB diet, 6 weeks, estimated by formula, control 64): 53 mg %
% Change HDL cholesterol [1, 8]: +5%
% Change HDL/LDL [1, 8]: -20%
% Change LDL cholesterol [1, 8]: -17%
% Change Total cholesterol [1, 8]: -4%
% Change Triglycerides [1, 8]: -11%
HDL cholesterol ([1]; hamsters): a trend to increase HDL cholesterol
LDL cholesterol ([1]; hamsters): markedly lower LDL cholesterol
ratio of LDL/HDL ([1]; hamsters): positively affected
HDL cholesterol ([1]; males, 0.1% Na-HMB diet, 6 weeks, control 111): 118 mg %
Total cholesterol ([1]; males, 0.1% Na-HMB diet, 6 weeks, control 217): 208 mg %
Triglycerides ([1]; males, 0.1% Na-HMB diet, 6 weeks, control 232): 226 mg %
HDL/LDL ([1]; males, 0.1% Na-HMB diet, 6 weeks, control .53): .38
LDL cholesterol ([1]; males, 0.1% Na-HMB diet, 6 weeks, estimated by formula, control 59): 45 mg %
% Change HDL cholesterol [1, 9]: +5%
% Change HDL/LDL [1, 9]: -28%
% Change LDL cholesterol [1, 9]: -24%
% Change Total cholesterol [1, 9]: -4%
% Change Triglycerides [1, 9]: -2%
cholesterol (blood cholesterol; 2 grams daily): appeared to decrease cholesterol
decrease of LDL cholesterol (blood cholesterol; [10]): about 6%
decrease of total cholesterol (blood cholesterol; [10]): about 6%
cholesterol (blood cholesterol; doses lower than 2 grams daily): no effect was clearly observable
blood cholesterol (blood cholesterol; over the course of the week): decreased in a dose-responsive manner
rate of acetate incorporation into cholesterol by the rat liver [2]: not significantly lowered
deposits of fat in the aorta (aorta; HMB-fed pigs): lower deposits of fat in the aorta
Aorta Streaking (aorta; dietary .01%, HMB C vs. .01% p .12): 1.23
Aorta Streaking (aorta; dietary .05%, HMB p .06, KIC ns): 1.18
adverse affects [3]: no adverse affects
complaint noted with several patients [3]: being hungrier than normal
effect on body fat [4]: extremely suggestive of an effect on body fat
inhibition of acetate incorporation [5]: no significant inhibition
% Net Effect HMB, % Body fat [7, 11]: -9%
% Net Effect HMB, Resting metabolic rate [7, 11]: 0%
% Net Effect HMB, Weight [7, 11]: 1.4%
Body weight ([7]; HMB treatment): did not change
body fat ([7]; HMB treatment): did not change
resting metabolic rate ([7]; HMB treatment): did not change
% Change Trt. % Body fat ([7]; control to HMB treatment): -12%
% Change Trt. Resting metabolic rate ([7]; control to HMB treatment): 4%
% Change Trt. Weight ([7]; control to HMB treatment): 1.4%
% Body fat (skin fold) ([7]; treated group on HMB, Ca HMB 1.0 grams/24 hours, pre-treatment control 12.5): 11.0%
resting metabolic rate ([7]; treated group on HMB, Ca HMB 1.0 grams/24 hours, pre-treatment control 74.8): 77.8 KCal/mw
Weight ([7]; treated group on HMB, Ca HMB 1.0 grams/24 hours, pre-treatment control 176): 179 lbs.
